This is an account of results in paper PMC6530635, “A Novel Single-Site Mutation in the Catalytic Domain of Protoporphyrinogen Oxidase IX (PPO) Confers Resistance to PPO-Inhibiting Herbicides” (Frontiers in Plant Science, 2019).

pIC50: −log10 of the molar value. Where two headings read alike, the source gives them in different places.

Assay [1] relates to Amaranthus palmeri R39P population. In kind it is in vivo. Conditions: for Frequency of resistant plants: R39P F1 population, 2X recommended dose, 21 DAT, 25 seedlings.
Assay [2] addresses recombinant Amaranthus tuberculatus PPO2 wild-type enzyme (Amaranthus tuberculatus, UniProt Q0NZW9). The assay is described as follows: biochemical.
The test system of assay [3] is Amaranthus palmeri MIS-D population. Details: method as in Salas-Perez et al., 2017. Conditions: ref Salas-Perez et al., 2017, cited from earlier work; for Response of MIS-D to 1X dose / Frequency of resistant plants: MIS-D field population.
Assay [4] has as its system Amaranthus palmeri (Palmer amaranth) populations MIS-D, R39P, R43P and SS. In kind it is in vivo. Conditions: visual injury 21 DAT, foliar spray.

Sequence of recombinant Amaranthus tuberculatus PPO2 wild-type enzyme (Q0NZW9 1-534): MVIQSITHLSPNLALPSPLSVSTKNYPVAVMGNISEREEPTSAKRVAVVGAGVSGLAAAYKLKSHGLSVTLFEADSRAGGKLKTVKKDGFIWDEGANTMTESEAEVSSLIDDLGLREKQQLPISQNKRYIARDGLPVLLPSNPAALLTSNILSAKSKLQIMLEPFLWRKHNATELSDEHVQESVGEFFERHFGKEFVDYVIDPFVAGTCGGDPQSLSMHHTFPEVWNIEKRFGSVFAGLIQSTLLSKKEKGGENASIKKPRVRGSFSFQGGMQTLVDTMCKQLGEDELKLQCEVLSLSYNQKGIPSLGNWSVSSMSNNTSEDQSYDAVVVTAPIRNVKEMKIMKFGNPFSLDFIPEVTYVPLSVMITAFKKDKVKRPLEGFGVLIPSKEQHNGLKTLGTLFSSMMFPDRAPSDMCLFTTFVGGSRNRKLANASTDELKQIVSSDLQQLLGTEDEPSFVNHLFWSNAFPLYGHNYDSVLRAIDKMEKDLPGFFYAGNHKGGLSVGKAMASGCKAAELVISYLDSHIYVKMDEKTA

As for `CC(C)N(C)S(=O)(=O)NC(=O)c1cc(-n2c(=O)cc(C(F)(F)F)n(C)c2=O)c(F)cc1Cl` [Saflufenacil], in assay [1] (in vivo), the Survival rate is under 20%.
Consider `Cc1nn(-c2cc(CC(Cl)C(=O)O)c(Cl)cc2F)c(=O)n1C(F)F` (stereo not shown) [Carfentrazone], for which the negative logarithm of the IC50 (pIC50) – broadly, −log10 of the IC50, conventionally taken in molar units – in assay [2] was 9.71. Further, the “Frequency of resistant plants” value in assay [1] is listed as 64%; in assay [1] (listed as carfentrazone), at least 40%. Also, in assay [3], the “Response of MIS-D to 1X dose” value was “resistant”.
Take `Cc1nn(-c2cc(NS(C)(=O)=O)c(Cl)cc2Cl)c(=O)n1C(F)F` [Sulfentrazone]: the pIC50 in assay [2] was 7.76.
Take `C#CCN1C(=O)COc2cc(F)c(N3C(=O)C4=C(CCCC4)C3=O)cc21` [Flumioxazin]: the pIC50 in assay [2] was 10.41. The “Frequency of resistant plants” value in assay [1] is reported as 60%; in assay [1] (listed as flumioxazin), at least 40%; in assay [3] (1X dose), 40%. Besides, the “Response of MIS-D to 1X dose” value in assay [3] is “resistant”.
On to `O=C(O)c1cc(Oc2ccc(C(F)(F)F)cc2Cl)ccc1[N+](=O)[O-]` [Acifluorfen], for which the pIC50 in assay [2] was 7.73. For the same molecule, the “Frequency of resistant plants” value was 8% in assay [1] and 1% in assay [3] (1X dose). Further, the Survival rate in assay [1] (in vivo) is recorded as under 20%. In addition, the Mortality in assay [3] (MIS-D, 1X dose) is over 90%.
As to `COC(=O)CSc1cc(/N=c2\sc(=O)n3n2CCCC3)c(F)cc1Cl` [Fluthiacet-methyl], the pIC50 in assay [2] was 9.17. In assay [3], the “Response of MIS-D to 1X dose” value is “resistant”.
Take `C#CCN(C)c1c(C#N)cnn1-c1nn2c(c1Cl)CCCC2` [Pyraclonil]: in assay [2] (read-out: Wild type sensitivity [IC50]), the pIC50 is 8.86.
In the case of `CCOC(=O)COc1cc(-c2nn(C)c(OC(F)F)c2Cl)c(F)cc1Cl` [Pyraflufen-ethyl], in assay [2], the pIC50 is 10.28. For the same molecule, the “Response of MIS-D to 1X dose” value in assay [3] is listed as “resistant”.
Take `CCOc1cc(Oc2ccc(C(F)(F)F)cc2Cl)ccc1[N+](=O)[O-]` [Oxyfluorfen]: in assay [2], the pIC50 was 10.47.
Take `CS(=O)(=O)NC(=O)c1cc(Oc2ccc(C(F)(F)F)cc2Cl)ccc1[N+](=O)[O-]` [Fomesafen]: the “ED50 (dose causing 50% herbicide injury)” value in assay [4] (MIS-D field population, PPO-resistant) is 124 (101–147) g ai ha^-1; in assay [4] (R39P F1 population, PPO-resistant), 143 (122–165) g ai ha^-1; in assay [4] (R43P F1 population, PPO-resistant), 187 (174–202) g ai ha^-1; in assay [4] (SS population, PPO-sensitive), 12 (10–13) g ai ha^-1. For the same molecule, the pIC50 in assay [2] was 8.88. Also, the Survival rate in assay [1] (R39P, 2X dose) is listed as under 20%. Moreover, in assay [3], the “Response of MIS-D to 1X dose” value is on record as “resistant”. Moreover, the “Frequency of resistant plants” value in assay [3] (1X dose) was 42%.
Consider `C=CCOC(=O)C(C)(C)OC(=O)c1cc(-n2c(=O)cc(C(F)(F)F)n(C)c2=O)ccc1Cl` [Butafenacil], for which the negative logarithm of the IC50 (pIC50) in assay [2] is 11.05.
For the molecule `CCOC(=O)C(C)OC(=O)c1cc(Oc2ccc(C(F)(F)F)cc2Cl)ccc1[N+](=O)[O-]` (stereo not shown) [Lactofen], the negative logarithm of the IC50 (pIC50) in assay [2] was 10.25. Further, the “Frequency of resistant plants” value in assay [1] is 40%; in assay [1] (listed as lactofen), at least 40%; in assay [3] (1X dose) it was 23%. The “Response of MIS-D to 1X dose” value in assay [3] is on record as “resistant”.
`CC(C)Oc1cc(-n2nc(C(C)(C)C)oc2=O)c(Cl)cc1Cl` [Oxadiazon]: the pIC50 in assay [2] was 9.15.
